The term TGI denotes the concentration giving total growth inhibition. High values mean less potent growth arrest, low ones more potent growth arrest. For orientation: GI50 means the concentration giving 50% growth inhibition.

Structures are written as SMILES. Where “and” joins values, the source holds several entries; their conditions need not be identical. Equal entries are not always repeated.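 Cultured in 96-well plates, cells were exposed to test compound for 48 hours across five concentrations. GI50 is the concentration that inhibits growth by half. TGI is the concentration that stops growth completely.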

Some test systems named below: NCI-H226 lung; HOP-62 NSCLC; EKVX NSCLC; SW-620 colon; SN12C renal; SK-MEL-2 melanoma; SNB-75 CNS; SNB-19 CNS; RXF 393 renal; SR leukemia; UACC-62 melanoma; A498 renal; KM12 colon; HT29 colon; HS 578T breast; SK-OV-3 ovarian; LOX IMVI melanoma; HCT-116 colon; MDA-N.
Common to all, as to assay: DTP human tumour cell line panel, 48 h

As to `CCCCN1C(=O)C[C@H]2[C@@H]3CCc4cc(OCCN5CCCC5)ccc4[C@H]3CC[C@]2(C)C1=O`, the TGI with NCI-H226 lung was found to be 21.4 µM; in the assay with HOP-62 NSCLC, 12.2 µM; with EKVX NSCLC, 30.1 µM; in the assay on SW-620 colon, 25.1 µM; in the assay with SN12C renal, 30.2 µM; in the assay with SK-MEL-2 melanoma it was 19.2 µM. Besides, the TGI amounted to 14 µM with SNB-75 CNS; 26.5 µM in the assay on SNB-19 CNS; 4.59 µM with RXF 393 renal; 23.6 µM with SR leukemia; 10.4 µM with UACC-62 melanoma; 29.4 µM with A498 renal. The TGI with KM12 colon came out at 21.9 µM; with HT29 colon, 5.06 µM; with HS 578T breast, 39.8 µM; in the assay on SK-OV-3 ovarian, 27.4 µM; in the assay on LOX IMVI melanoma it was 10.8 µM; in the assay with HCT-116 colon, 16.4 µM. The molecule also had a TGI in the assay on MDA-N of 15.1 µM.

For the molecule `CCOC(=O)C(SCCO)C(C(=O)OCC)n1cc(C)c(=O)[nH]c1=O` (stereo not given), the TGI with NCI-H226 lung was greater than 61.4 µM; in the assay on HOP-62 NSCLC, greater than 85.6 µM; in the assay with EKVX NSCLC, greater than 100 µM; in the assay with SW-620 colon, greater than 43.1 µM; in the assay on SN12C renal it was greater than 45.8 µM; with SK-MEL-2 melanoma, 51.1 µM. The TGI is greater than 100 µM in the assay with SNB-75 CNS; greater than 100 µM in the assay on SNB-19 CNS; 43.7 µM in the assay with RXF 393 renal; 35.5 µM in the assay on SR leukemia; 40 µM in the assay with UACC-62 melanoma; 47.5 µM with A498 renal. The TGI was greater than 63.1 µM in the assay on KM12 colon; 32.2 µM with HT29 colon; greater than 100 µM in the assay on HS 578T breast; greater than 100 µM in the assay with SK-OV-3 ovarian; 19.2 µM in the assay with LOX IMVI melanoma; 22.6 µM in the assay on HCT-116 colon. For the same molecule, the TGI in the assay with MDA-N was found to be 64.4 µM.

For `COc1cc2c(cc1OC)C(=O)/C(=C/c1ccccc1)C2`, the TGI with NCI-H226 lung, with HOP-62 NSCLC, with EKVX NSCLC, with SW-620 colon, with SN12C renal and with SK-MEL-2 melanoma was greater than 100 µM in each case. Also, the TGI in the assay on SNB-75 CNS was 98.1 µM; in the assay on SNB-19 CNS it was greater than 100 µM; with RXF 393 renal, greater than 100 µM; with SR leukemia, greater than 100 µM; in the assay with UACC-62 melanoma it was greater than 67.7 µM; in the assay on A498 renal, 7.24 µM. Moreover, the TGI in the assay with KM12 colon, with HT29 colon, in the assay with HS 578T breast, with SK-OV-3 ovarian, with LOX IMVI melanoma and with HCT-116 colon was greater than 100 µM each time. This molecule returned a TGI in the assay with MDA-N greater than 100 µM.

Regarding `CN(C)CC1CN(C(=O)Nc2ccccc2)C(=N)O1` (stereo not given), the TGI with NCI-H226 lung, in the assay with HOP-62 NSCLC, with EKVX NSCLC, in the assay with SW-620 colon, in the assay on SN12C renal and in the assay with SK-MEL-2 melanoma was greater than 100 µM throughout. Besides, the TGI in the assay on SNB-75 CNS, in the assay on SNB-19 CNS, in the assay on RXF 393 renal, with SR leukemia, in the assay on UACC-62 melanoma and with A498 renal was greater than 100 µM in each case. Further, the TGI in the assay on KM12 colon, in the assay on HT29 colon, in the assay with HS 578T breast, in the assay with SK-OV-3 ovarian, in the assay with LOX IMVI melanoma and in the assay on HCT-116 colon was greater than 100 µM in each case. This molecule displayed a TGI with MDA-N greater than 100 µM.

Consider `Cc1ccc2nc(Cl)c(/C=N/N3C(=O)/C(=C/Cc4ccco4)N=C3c3ccccc3)cc2c1`, for which the TGI in the assay on NCI-H226 lung is greater than 100 µM; with HOP-62 NSCLC, greater than 100 µM; in the assay with EKVX NSCLC, 98.7 µM; in the assay on SW-620 colon, greater than 100 µM; in the assay with SN12C renal, greater than 69.6 µM; in the assay on SK-MEL-2 melanoma it was greater than 100 µM. Further, the TGI with SNB-75 CNS is greater than 92.8 µM; in the assay with SNB-19 CNS, greater than 90.9 µM; in the assay on RXF 393 renal it was greater than 100 µM; in the assay on SR leukemia, greater than 100 µM; in the assay with UACC-62 melanoma it was greater than 100 µM; in the assay with A498 renal, greater than 100 µM. Further, the TGI in the assay on KM12 colon is greater than 93.6 µM; in the assay with HT29 colon it was greater than 79.4 µM; with HS 578T breast it was greater than 86.2 µM; with SK-OV-3 ovarian, greater than 100 µM; in the assay with LOX IMVI melanoma, greater than 69.3 µM; in the assay with HCT-116 colon, 39.3 µM. In the assay with MDA-N, this molecule yielded a TGI of 39.6 µM.

Regarding `CO[C@H]1C[C@H](O[C@H]2CC[C@]3(C=O)[C@H]4CC[C@]5(C)[C@@H](C6=CC(=O)OC6)CC[C@]5(O)[C@@H]4CC[C@]3(O)C2)O[C@H](C)[C@H]1O[C@@H]1O[C@H](CO[C@@H]2O[C@H](CO)[C@@H](O)[C@H](O)[C@H]2O)[C@@H](O)[C@H](O)[C@H]1O`, the TGI with NCI-H226 lung was 0.32 µM; in the assay on HOP-62 NSCLC, 0.0388 µM; in the assay on EKVX NSCLC, 0.0631 µM; with SW-620 colon it was 0.179 µM; in the assay on SN12C renal it was 0.11 µM; in the assay on SK-MEL-2 melanoma, 0.907 µM. Further, the TGI in the assay with SNB-75 CNS was found to be 0.437 µM; in the assay with SNB-19 CNS, 0.83 µM; with RXF 393 renal, 0.0802 µM; in the assay on SR leukemia, 0.419 µM; with UACC-62 melanoma it was 0.467 µM; in the assay on A498 renal, 0.533 µM. Besides, the TGI in the assay with KM12 colon was 0.515 µM; in the assay with HT29 colon, 0.188 µM; in the assay on HS 578T breast, 0.518 µM; in the assay on SK-OV-3 ovarian it was 0.21 µM; with LOX IMVI melanoma, 0.137 µM; in the assay on HCT-116 colon, 0.0911 µM. The same molecule came in with a TGI with MDA-N of 0.286 µM.

Turning to `COc1ccc2nc(-c3ccc(O)cc3)cn2c1`, the TGI in the assay on NCI-H226 lung, in the assay on HOP-62 NSCLC, with EKVX NSCLC, in the assay on SW-620 colon, in the assay on SN12C renal and in the assay with SK-MEL-2 melanoma was greater than 100 µM in each case. Further, the TGI is greater than 100 µM in the assay on SNB-75 CNS; greater than 100 µM with SNB-19 CNS; greater than 100 µM with RXF 393 renal; greater than 100 µM with SR leukemia; 86.2 µM in the assay with UACC-62 melanoma; greater than 100 µM in the assay with A498 renal. Besides, the TGI in the assay with KM12 colon, in the assay on HT29 colon, with HS 578T breast, in the assay with SK-OV-3 ovarian, in the assay with LOX IMVI melanoma and in the assay on HCT-116 colon was greater than 100 µM throughout. Also, the TGI in the assay on MDA-N was greater than 100 µM.

As for `O=C(O)C1CCCN1Cc1ccc2c(c1)OCO2` (stereo not given), the TGI with NCI-H226 lung, with HOP-62 NSCLC, in the assay with EKVX NSCLC, with SW-620 colon, in the assay on SN12C renal and with SK-MEL-2 melanoma was greater than 100 µM throughout. For the same molecule, the TGI in the assay on SNB-75 CNS, in the assay with SNB-19 CNS, with RXF 393 renal, in the assay on SR leukemia, with UACC-62 melanoma and with A498 renal was greater than 100 µM throughout. Moreover, the TGI in the assay with KM12 colon, with HT29 colon, in the assay on HS 578T breast, with SK-OV-3 ovarian, with LOX IMVI melanoma and with HCT-116 colon was greater than 100 µM throughout. In the assay with MDA-N, this molecule showed a TGI greater than 100 µM.

Take `COc1cc(CNC(=O)CCCCCCCCCCSSCCCCCCCCCCC(=O)NCc2ccc(O)c(OC)c2)ccc1O`: the TGI in the assay with NCI-H226 lung, with HOP-62 NSCLC, in the assay on EKVX NSCLC, in the assay on SW-620 colon, in the assay with SN12C renal and with SK-MEL-2 melanoma was greater than 10 µM throughout. Moreover, the TGI in the assay with SNB-75 CNS, in the assay on SNB-19 CNS, in the assay with RXF 393 renal, in the assay on SR leukemia, with UACC-62 melanoma and with A498 renal was greater than 10 µM in each case. Also, the TGI in the assay with KM12 colon, in the assay on HT29 colon, in the assay with HS 578T breast, with SK-OV-3 ovarian, with LOX IMVI melanoma and in the assay with HCT-116 colon was greater than 10 µM each time. In the assay on MDA-N, the TGI was greater than 10 µM.

In the case of `CN(C)C1COC2Cc3ccccc3C1O2` (stereo not given), the TGI in the assay with NCI-H226 lung, in the assay on HOP-62 NSCLC, with EKVX NSCLC, in the assay on SW-620 colon, in the assay on SN12C renal and in the assay with SK-MEL-2 melanoma was greater than 100 µM each time. For the same molecule, the TGI with SNB-75 CNS was 83.5 µM and 79.7 µM; in the assay on SNB-19 CNS, greater than 100 µM; with RXF 393 renal it was greater than 100 µM; in the assay on SR leukemia it was greater than 100 µM; in the assay on UACC-62 melanoma it was greater than 100 µM; with A498 renal, greater than 100 µM. The TGI with KM12 colon, in the assay with HT29 colon, in the assay on HS 578T breast, with SK-OV-3 ovarian, with LOX IMVI melanoma and in the assay with HCT-116 colon was greater than 100 µM in each case. The molecule also came in with a TGI with MDA-N greater than 100 µM. Also, the GI50 in the assay on SNB-75 CNS was 3.16 µM and 11.2 µM.

On to `CC(=O)O[C@H]1C(=O)[C@@]2(C)[C@H]([C@H](OC(=O)c3ccncc3)[C@]3(O)C[C@H](OC(=O)[C@H](O)[C@@H](NC(=O)c4ccccc4)c4ccccc4)C(C)=C1C3(C)C)[C@]1(OC(C)=O)CO[C@@H]1C[C@@H]2O`, for which the TGI in the assay with NCI-H226 lung, with HOP-62 NSCLC, in the assay with EKVX NSCLC, in the assay with SW-620 colon, in the assay on SN12C renal and with SK-MEL-2 melanoma was greater than 25 µM in each case. Also, the TGI is greater than 18.1 µM with SNB-75 CNS; greater than 25 µM in the assay on SNB-19 CNS; greater than 23.3 µM in the assay with RXF 393 renal; greater than 25 µM in the assay with SR leukemia; greater than 25 µM with UACC-62 melanoma; greater than 25 µM in the assay with A498 renal. The TGI with KM12 colon is greater than 25 µM; with HT29 colon, greater than 25 µM; with HS 578T breast, greater than 21 µM; in the assay on SK-OV-3 ovarian it was greater than 25 µM; in the assay with LOX IMVI melanoma it was greater than 25 µM; in the assay on HCT-116 colon it was greater than 11.1 µM. The same molecule returned a TGI in the assay on MDA-N of 2.1 µM.

The values above are taken from PubChem BioAssay (NCI).
